From the supplement of paper PMC10307832

These cell lines were tested with CCCS(=O)(=O)Nc1ccc(F)c(C(=O)c2c[nH]c3ncc(-c4ccc(Cl)cc4)cc23)c1F [Vemurafenib] + CC(=O)c1c(C)c2cnc(Nc3ccc(N4CCNCC4)cn3)nc2n(C2CCCC2)c1=O [Palbociclib] (partner 0.5 µM) (assay: relative viability (nuclei count vs DMSO), 5 days (fraction); higher = more cells survive). Details: first compound 0.03162 µM.
Method in brief: (§1)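 Lung cancer cell lines were pin-tool dosed in 1536-well plates on the day after seeding, with either a lone drug or a fixed anchor-drug dose plus five library-drug doses (not always all listed) in √10 steps. Nuclei were counted on 4× images after 5 days. Relative viability is the ratio of treated-well to vehicle-well nuclei counts, with each value a median of duplicate plates.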
RERF-LC-KJ gave a relative viability of 1.03. For NCI-H322M, the relative viability was 0.444. In the case of 201T, the relative viability is reported as 0.37. Cell Line SK-MES-1 has a relative viability of 0.314. With NCI-H441 the relative viability was 0.23. HCC-78 showed a relative viability of 0.495.

Same assay, conditions: first compound 0.1 µM
For RERF-LC-KJ, the relative viability was 0.968. 201T was tested, and the relative viability was 0.309. In the case of NCI-H441, the relative viability is reported as 0.185. Work on HCC-78 yielded a relative viability of 0.464.

Same assay, conditions: first compound 0.3162 µM
With RERF-LC-KJ the relative viability was 1.07. Cell Line NCI-H322M has a relative viability of 0.557. 201T showed a relative viability of 0.365. In the case of SK-MES-1, the relative viability is reported as 0.314. Work on NCI-H441 yielded a relative viability of 0.241. With HCC-78 the relative viability was 0.473.

Same assay, conditions: first compound 1 µM
RERF-LC-KJ showed a relative viability of 1.11. Work on NCI-H322M yielded a relative viability of 0.475. 201T was tested, and the relative viability was 0.402. In the case of SK-MES-1, the relative viability is reported as 0.318. NCI-H441 gave a relative viability of 0.237. HCC-78 showed a relative viability of 0.537.

What follows are cell lines tested with CCCS(=O)(=O)Nc1ccc(F)c(C(=O)c2c[nH]c3ncc(-c4ccc(Cl)cc4)cc23)c1F [Vemurafenib] + Nc1ncn([C@H]2C[C@H](O)[C@@H](CO)O2)c(=O)n1 [Decitabine] (partner 2 µM) in the same assay as above. Details: first compound 0.03162 µM.
Method in brief: as §1
Work on RERF-LC-KJ yielded a relative viability of 0.639. With NCI-H322M the relative viability was 0.721. Cell Line 201T has a relative viability of 0.821. For SK-MES-1, the relative viability was 0.384. With NCI-H441 the relative viability was 0.252. HCC-78 gave a relative viability of 0.61.

Same assay, conditions: first compound 0.1 µM
RERF-LC-KJ showed a relative viability of 0.678. 201T gave a relative viability of 0.825. In the case of SK-MES-1, the relative viability is reported as 0.334. For NCI-H441, the relative viability was 0.262. HCC-78 showed a relative viability of 0.57.

Same assay, conditions: first compound 0.3162 µM
Work on RERF-LC-KJ yielded a relative viability of 0.632. Work on NCI-H322M yielded a relative viability of 0.86. Work on 201T yielded a relative viability of 0.886. SK-MES-1 was tested, and the relative viability was 0.38. NCI-H441 gave a relative viability of 0.28. In the case of HCC-78, the relative viability is reported as 0.705.

Same assay, conditions: first compound 1 µM
For RERF-LC-KJ, the relative viability was 0.716. NCI-H322M was tested, and the relative viability was 0.707. With 201T the relative viability was 0.799. SK-MES-1 showed a relative viability of 0.386. With NCI-H441 the relative viability was 0.231. Cell Line HCC-78 has a relative viability of 0.744.

Each cell line was assayed with COc1cccc2cc(-c3nc([C@H]4CC[C@H](C(=O)O)CC4)n4ncnc(N)c34)[nH]c12 [OSI-027] + N=C(N)NC(=N)NCCc1ccccc1 [Phenformin] (partner 250 µM) in the same assay as above. Details: first compound 0.01 µM.
Method in brief: as §1
In the case of RERF-LC-KJ, the relative viability is reported as 0.458. Work on NCI-H322M yielded a relative viability of 0.737. In the case of 201T, the relative viability is reported as 0.477. With SK-MES-1 the relative viability was 0.637. NCI-H441 was tested, and the relative viability was 0.895. HCC-78 was tested, and the relative viability was 0.624.

Same assay, conditions: first compound 0.03162 µM
In the case of RERF-LC-KJ, the relative viability is reported as 0.423. NCI-H322M gave a relative viability of 0.748. 201T was tested, and the relative viability was 0.45. Cell Line SK-MES-1 has a relative viability of 0.608. Cell Line NCI-H441 has a relative viability of 0.879. HCC-78 was tested, and the relative viability was 0.626.

Same assay, conditions: first compound 0.1 µM
Cell Line RERF-LC-KJ has a relative viability of 0.383. Work on NCI-H322M yielded a relative viability of 0.674. Cell Line 201T has a relative viability of 0.445. With SK-MES-1 the relative viability was 0.64. NCI-H441 showed a relative viability of 0.841. For HCC-78, the relative viability was 0.593.

Same assay, conditions: first compound 0.3162 µM
RERF-LC-KJ was tested, and the relative viability was 0.383. For NCI-H322M, the relative viability was 0.531. 201T gave a relative viability of 0.407. Work on SK-MES-1 yielded a relative viability of 0.576. NCI-H441 was tested, and the relative viability was 0.55. With HCC-78 the relative viability was 0.558.

Same assay, conditions: first compound 1 µM
For RERF-LC-KJ, the relative viability was 0.361. In the case of NCI-H322M, the relative viability is reported as 0.498. 201T was tested, and the relative viability was 0.371. In the case of SK-MES-1, the relative viability is reported as 0.305. NCI-H441 was tested, and the relative viability was 0.474. HCC-78 gave a relative viability of 0.432.

What follows are cell lines tested with COc1cccc2cc(-c3nc([C@H]4CC[C@H](C(=O)O)CC4)n4ncnc(N)c34)[nH]c12 [OSI-027] + CC1(C)CCC(c2ccc(Cl)cc2)=C(CN2CCN(c3ccc(C(=O)NS(=O)(=O)c4ccc(N[C@H](CCN5CCOCC5)CSc5ccccc5)c(S(=O)(=O)C(F)(F)F)c4)cc3)CC2)C1 [Navitoclax] (partner 0.5 µM) in the same assay as above. Details: first compound 0.01 µM.
Method in brief: as §1
In the case of RERF-LC-KJ, the relative viability is reported as 0.795. In the case of NCI-H322M, the relative viability is reported as 1.24. 201T showed a relative viability of 1.25. For SK-MES-1, the relative viability was 1.27. NCI-H441 gave a relative viability of 0.47. With HCC-78 the relative viability was 0.868.

Same assay, conditions: first compound 0.03162 µM
RERF-LC-KJ gave a relative viability of 1. NCI-H322M was tested, and the relative viability was 1.15. 201T was tested, and the relative viability was 1.24. SK-MES-1 showed a relative viability of 1.23. With NCI-H441 the relative viability was 0.57. Cell Line HCC-78 has a relative viability of 0.766.

Same assay, conditions: first compound 0.1 µM
Work on RERF-LC-KJ yielded a relative viability of 0.839. With NCI-H322M the relative viability was 1.17. Work on 201T yielded a relative viability of 1.2. Cell Line SK-MES-1 has a relative viability of 1.17. Cell Line NCI-H441 has a relative viability of 0.425. For HCC-78, the relative viability was 0.371.

Same assay, conditions: first compound 0.3162 µM
With RERF-LC-KJ the relative viability was 0.672. Work on NCI-H322M yielded a relative viability of 0.783. For 201T, the relative viability was 1.22. SK-MES-1 gave a relative viability of 0.974. Cell Line NCI-H441 has a relative viability of 0.47. With HCC-78 the relative viability was 0.454.

Same assay, conditions: first compound 1 µM
RERF-LC-KJ gave a relative viability of 0.289. Work on NCI-H322M yielded a relative viability of 1.27. In the case of 201T, the relative viability is reported as 1.13. With SK-MES-1 the relative viability was 0.484. With NCI-H441 the relative viability was 0.185. With HCC-78 the relative viability was 0.278.
